Data on 13 compounds can be found in patent publication US20250034161A1, “SPIROCYCLIC COMPOUND AS KRAS-G12C INHIBITOR” (Shanghai Euregen Biopharma Co., Ltd., priority 2020, published 2025).

In general, IC50 refers to the midpoint of a concentration-inhibition curve.

Bounds are passed on as bounds.

The first experiment has as its system NCI-H358 cells. In words: Inhibitory effect on proliferation of NCI-H358 cells (CellTiter-Glo, 72 h). It counts as cell-based, human.
Settings: not given
From the text: Inhibitory effect of compounds on the proliferation of […] cells • 1. Experimental principle: NCI-H358 cell is human non-small cell lung cancer cell line expressing KRAS G12C. […] Test materials: NCI-H358 cells were purchased from ATCC; CellTiter-GloR was purchased from Promega (item: G7571); RPMI-1640 was purchased from ATCC (item: 30-2001): fetal bovine serum (FBS) was purchased from EXCELL (item: FND500); Penicillin-streptomycin was purchased from Gibco (item: 15140-122); 0.25% trypsin-ethylenediaminetetraacetic acid digestive juice (Trypsin-EDTA) was purchased from Gibco (item: 25200-072); dimethyl sulfoxide (DMSO) was purchased from Sigma (item: D2650); 96-well plate was purchased from Corning (item: 3610); Incubator was purchased from Thermo (model: 3111); Inverted microscope was purchased from Nikon (item: TS-100); Automatic cell counter was purchased from Life technologies (model: Countess II); Enzyme plate reader was purchased from PerkinElmer (model: Envision); The data processing software was GraphPad Prism 5.0. • 3. Test method:
Cells in logarithmic growth phase were resuspended in growth medium (RPMI-1640+10% FBS) and diluted to target density ([…]). The above cell suspension was inoculated into 96-well plates at 100 μL per well; incubated overnight in a 37° C., 5% CO2 incubator. Medium was used as background control.
The test compound was dissolved in DMSO to prepare a stock solution at a concentration of 10 mmol/L. The stock solution was first diluted to 2 mmol/L with DMSO, and then diluted in 3-fold gradient for a total of 10 concentrations. 3 μL of each concentration of the above solution was taken and diluted with 197 μL of growth medium. […] at 50 μL/well in the 96-well plate. The cells to which the test compound was added were incubated in a 37° C., 5% CO2 incubator for 72 hours. The 96-well plate was equilibrated at room temperature, and 40 μL CellTiter-Glo reagent was added to each well. Then, the plate was mixed on the vortex for 2 minutes, incubated at room temperature for 60 minutes. The luminescence value was read on an EnVision microplate reader, and the IC50 of the compound was calculated using the GraphPad Prism 5.0 software.
Background: ATP-based viability assays read luminescence as a measure of living cells.
Consider `CN1CCC[C@H]1COc1nc2c(c(N3CCN(C(=O)/C=C/CF)[C@@H](CC#N)C3)n1)CN(C)C1(CCc3ccccc31)C2` (stereo partly shown) [Compound 14], for which the IC50 was 1000 to 10000 nM.

Regarding `C=CC(=O)N1CCN(c2nc(OC[C@@H]3CCCN3C)nc3c2CN(C)C2(CCc4ccccc42)C3)[C@@H](C)C1` (stereo partly shown) [Formate of 4], the IC50 was in the range of 1000 to 10000 nM.

`C=CC(=O)N1CCN(c2nc(OC[C@@H]3CCCN3C)nc3c2CNC2(CCc4cccc(F)c42)C3)C[C@@H]1CC#N` (stereo partly shown) [Formate of 10] yielded an IC50 of 100 to 1000 nM.

As to `C=CC(=O)N1CCN(c2nc(OC[C@@H]3CCCN3C)nc3c2CN(C)C2(CCc4ccc(F)cc42)C3)C[C@@H]1CC#N` (stereo partly shown) [Formate of 11], the IC50 lay in the range of 1000 to 10000 nM.

`CN(C)C/C=C/C(=O)N1CCN(c2nc(OC[C@@H]3CCCN3C)nc3c2CN(C)C2(CCc4cccc(F)c42)C3)C[C@@H]1CC#N` (stereo partly shown) [Formate of 15] displayed an IC50 of 100 to 1000 nM.

The compound `C=CC(=O)N1CCN(c2nc(OC[C@@H]3CCCN3C)nc3c2CN(C)C2(CCc4cccc(Cl)c42)C3)C[C@@H]1CC#N` (stereo partly shown) [Formate of 18] yielded an IC50 of less than 100 nM.

Take `C=CC(=O)N1CCN(c2nc(OC[C@@H]3CCCN3C)nc3c2CN(C)C2(CCCc4ccccc42)C3)C[C@@H]1CC#N` (stereo partly shown) [Formate of 20]: the IC50 is less than 100 nM.

For the compound `C=CC(=O)N1CCN(c2nc(OC[C@@H]3CCCN3C)nc3c2CN(C)C2(CCOc4ccccc42)C3)C[C@@H]1CC#N` (stereo partly shown) [Formate of 22], the IC50 lay in the range of 100 to 1000 nM.

Compound `C=CC(=O)N1CCN(c2nc(OC[C@@H]3CCCN3C)nc3c2CN(C)C2(CCc4c(OC)cccc42)C3)C[C@@H]1CC#N` (stereo partly shown) [Formate of 24] showed an IC50 of 100 to 1000 nM.

With `C=CC(=O)N1CCN(c2nc(OC[C@@]34CCCN3C[C@H](F)C4)nc3c2CN(C)C2(CCc4cccc(Cl)c42)C3)C[C@@H]1CC#N` (stereo partly shown) [Formate of 34], the IC50 was less than 100 nM.

Still in this experiment, the particulars now being: Homo sapiens.
`C=CC(=O)N1CCN(c2nc(OCC3CCCN3C)nc3c2CN(C)C2(CCc4ccccc42)C3)CC1` (stereo not shown) [Compound 1] registered an IC50 of 1000 to 10000 nM.

`C=CC(=O)N1CCN(c2nc(OC[C@@H]3CCCN3C)nc3c2CN(C)C2(CCc4ccc(Cl)cc42)C3)C[C@@H]1CC#N` (stereo partly shown) [Compound 5] gave a half-inhibitory concentration (IC50) of 100 to 1000 nM.

`C=C(F)C(=O)N1CCN(c2nc(OC[C@@]34CCCN3C[C@H](F)C4)nc3c2CN(C)C2(CCc4cccc(Cl)c42)C3)C[C@@H]1CC#N` (stereo partly shown) [Compound 35] had an IC50 of less than 100 nM.
